Patent US5310667A (priority 1989, dated 1994)

Tested on: MP4 cells
Experiment: Suspension culture of petunia cells in glyphosate medium
Assay type: cell-based
Settings: MS media containing 0.5 mM glyphosate (sodium salt); estimated; read-out: cells which survived, of the starting population
Method: The starting cell line, designated as the MP4 line, was derived from a Mitchell diploid petunia (see e.g., Ausubel 1980). The MP4 cells were suspended in Murashige and Skoog (MS) culture media, (GIBCO, Grand Island, N.Y.) All transfers involved dispensing 10 ml of suspension cultures into 50 ml of fresh media. Cultivation periods until the next transfer ranged from 10 to 14 days, and were based on visual indications that the culture was approaching saturation.
Approximately 10 ml of saturated suspension culture (containing about 5×10^6 cells) were transferred into 50 ml of MS media containing 0.5 mM glyphosate. The sodium salt of glyphosate was used throughout the experiments described herein. The large majority of cells were unable to reproduce in the presence of the glyphosate. The cells which survived (estimated to be less than 1% of the starting population) were cultured in 0.5 mM glyphosate and transferred to fresh media containing glyphosate every 10 to 14 days.

In the case of `O=C(O)CNCP(=O)(O)O` [glyphosate, N-phosphonomethylglycine], the viability at 500 µM is reported as < 1%.
